Measurements: US10793509B2, “Compounds useful in the treatment of neoplastic diseases” (UNIVERSITÄT ZU KÖLN, priority 2013, dated 2020)

Legend:
[1] = test system: SW480, MelJuso, HCC44, SH2 and COLO704 cell lines; format: cell-based; settings: 24 h, 0.01-100 μM
Procedure: (§1) In the following experiment the possible therapeutic window for NO-ASA derivatives was investigated. […] The melanoma cell line MelJuso, the colon carcinoma cell line SW480, the small cell lung cancer cell line HCC44, the ovarian adenocarcinoma cell line COLO704 and the acute myeloid leukemia cell line SH2 were treated with concentrations of p-NO-ASA and B9, B12 and B13 in a range between 0.01 μM and 100 μM for 24 h, followed by addition of luminogenic CellTiter-Glo® reagent.

Primary CLL cells = assay: AnnexinV/PI assay on primary CLL cells; format: cell-based, human
Procedure: PBMCs or CLL cells (5*10^6 cells/ml) were incubated for 24 h with different compounds at concentrations from 0.01 to 100 μM. Cell survival was normalized to DMSO control [vehicle]. See Example 1.
Primary CLL or peripheral blood mononuclear cells of healthy donors (5*10^6/ml) were incubated for 24 h with different compounds according to the invention and NO-ASA as a control. The compounds were added in different concentrations, in particular in concentrations from 0.01-100 μM. Cell survival was assessed by AnnexinV/PI assay (Kit commercially available, e.g. by Biotium Inc, USA; or Phoenix Flow Systems, US), the results were normalized to DMSO control [vehicle] and dose response curves were calculated using a non-linear regression model.

[2] = test system: small cell lung cancer cell line HCC44; assay: Annexin V/PI assay, HCC44; format: cell-based; settings: Homo sapiens, HCC44, 24 h
U2932 = assay: CellTiter-Glo ATP assay, U2932 cell line; format: cell-based; settings: 24 h, 0.01-1000 μM
Procedure: (§2) Several cell lines (n=5) were treated with different concentrations of p-NO-ASA, B9, B12 and B13 ranging between 0.01 μM and 1000 μM for 24 hours followed by addition of luminogenic CellTiter-Glo®-reagent. […] For each cell line the order of used compound in the bar chart is from left to right as following: p-NO-ASA, B9, B12, B13.
(§3) Treatment success in CLL may depend on cytogenetic and molecular parameters as for instance del13q or TP53 gene disruption. Therefore, the NO-ASA derivatives were examined on (chronic) B cell lymphoma cell lines with different geno- and phenotypes (JVM3, EHEB, U2932, MEC-1, GRANTA-519). The cells were treated with concentrations between 0.01 and 1000 μM for 24 h followed by the addition of luminogenic CellTiter-Glo® reagent.

[3] = test system: CLL cells without a TP53 mutation; assay: FACS analysis of treated CLL cells without TP53 mutation; format: cell-based, human; settings: 24 h, 0.01-100 μM, FIG. 6
Procedure: (§4) Isolated, primary CLL cells were treated for 24 h with the EC50 of the different compounds and the ATP-content was measured by flow cytometry. For each used compound the order of mean EC50 concentrations in the bar chart is from left to right as following: EC50 CLL cells TP53 unmut (unmutated=without mutation), EC50 CLL cells TP53 mut (mutated=with mutation).
(§5) Further, the derivatives B9, B12 and B13 were tested in comparison to para-NO-ASA on CLL cells which harbour a TP53 mutation. The patient subgroup with a TP53 disruption is characterized by a considerable dismal prognosis. CLL cells of patients with and without the TP53 mutation were treated with five different concentrations (0.01, 0.1, 1, 10, 100 μM) of para-NO-ASA, B9, B12 and B13 for 24 h.

[4] = test system: melanoma cell line MelJuso; assay: Annexin V/PI assay, MelJuso; format: cell-based; settings: Homo sapiens, MEL-JUSO, 24 h
[5] = test system: melanoma cell line MelJuso; assay: Viability assay (ATP content, CellTiter-Glo), MelJuso; format: cell-based; settings: Homo sapiens, MEL-JUSO, 24 h
Procedure: as §1
(§6) Table accompanying Example 5. Overview of the EC50 values of cell survival analyzed by ATP content and Annexin V/PI assay. n.t.; not tested

[6] = test system: small cell lung cancer cell line HCC44; assay: Viability assay (ATP content, CellTiter-Glo), HCC44; format: cell-based; settings: Homo sapiens, HCC44, 24 h
Procedure: as §1, §6

GRANTA-519 = assay: CellTiter-Glo ATP assay, GRANTA-519 cell line; format: cell-based; settings: Homo sapiens, Granta-519; 24 h, CellTiter-Glo
Procedure: as §2, §3

TP53-mutated CLL cells = assay: FACS analysis of treated CLL cells with TP53 mutation; format: cell-based, human; settings: 24 h, 0.01-100 μM, FIG. 6
Procedure: as §4, §5

EHEB = assay: CellTiter-Glo ATP assay, EHEB cell line; format: cell-based; settings: 24 h, 0.01-1000 μM
Procedure: as §2, §3

caspases 3 and 7 = assay: caspase-3/7 assay in CLL cells; format: cell-based; settings: Homo sapiens, CLL cell, 6 h, 0.01-20 μM, luminogenic caspase-3/7-substrate, read-out: activation of caspases 3 and 7, EC50
Description: FIG. 8 depicts the involvement of caspase-mediated apoptosis in CLL cells upon treatment with p-NO-ASA, B9, B12 and B13. Representative blots of 3 independent experiments are shown. Untreated and DMSO (1%) treated cells served as control. beta-actin=loading control (FIG. 8A). para-NO-ASA and B9 induced a concentration-dependent increase in caspase-3/7-activation (FIG. 8B).
To determine whether the toxicity on CLL cells is due to caspase-mediated apoptosis, the cleavage of PARP (Poly(ADP-ribose)-Polymerase 1) and XIAP (X-linked inhibitor of apoptosis) was analyzed by immunoblot. CLL cells were cultured alone, with 1% DMSO or with EC50 of p-NO-ASA, meta-NO-ASA, B9, B12 and B13 for 24 h followed by protein lysation and western blot analysis using antibodies to detect prognostic apoptotic proteins (XIAP, PARP). […] All compounds tested induced PARP and XIAP cleavage (FIG. 8A). Further a caspase-3/7 assay was carried out. CLL cells were incubated with para-NO-ASA and B9 in different concentrations ranging from 0.01 μM to 20 μM for 6 h followed by addition of luminogenic caspase-3/7-substrate. This indicates the reduction of the survival of CLL cells upon treatment with p-NO-ASA and B9 due to the induction of caspase-mediated apoptosis.

[7] = test system: acute myeloid leukemia cell line SH2; assay: Annexin V/PI assay, SH2; format: cell-based; settings: 24 h
JVM-3 = assay: CellTiter-Glo ATP assay, JVM-3 cell line; format: cell-based, human; settings: 24 h, 0.01-1000 μM
Procedure: as §2, §3

With O=C(Oc1ccc(CO[N+](=O)[O-])cc1)c1ccccc1 [B9, 4-((nitrooxy)methyl)phenyl benzoate] the “ATP content in SW480, MelJuso, HCC44, SH2 and COLO704 cell lines” value [1] was “reduced ATP content”, the “selectivity for CLL cells compared to PBMCs” value (Primary CLL cells; FIG. 3, sensitivity of CLL cells vs PBMCs, 24 h) was “selective for CLL cells” and the EC50 (Primary CLL cells; Homo sapiens, CLL cell, 24 h incubation, 0.01-100 μM, 5*10^6 cells/ml, normalized to DMSO control, read-out: AnnexinV/PI assay EC50 Primary CLL) was 1850 nM. The EC50 [2] was 6760 nM, the “ATP content in U2932” value (U2932) was “reduced ATP content” and the “effect on CLL cells without a TP53 mutation” value [3] was “great effect”. The EC50 [4] was 8760 nM, the EC50 [5] was 890 nM and the EC50 [6] was 2480 nM. For the same compound, the EC50 (GRANTA-519) was 2280 nM, the “effect on TP53-mutated CLL cells in comparison to para-NO-ASA (B1)” value (TP53-mutated CLL cells) was “more effective” and the “ATP content in EHEB” value (EHEB) was “reduced ATP content”. The EC50 (caspases 3 and 7) was 230 nM, the EC50 [7] was 1930 nM and the “ATP content in JVM-3” value (JVM-3) was “reduced ATP content”.
